Patent publication US20050058636A1, “Medicament against thrombotic diseases” (priority 2002, published 2005)

Assays:
PAI-1 = test: Urokinase-mediated clot lysis in the presence of PAI-1; type: biochemical; details: not shown
platelet-rich plasma = test: Aggregation of platelet-rich plasma; type: cell-based; details: Adenosin-diphosphate (5 μM)-induced; competitors each 1000 nM (FIG. 5)
Description: Platelet-rich plasma from fresh whole blood in sodium citrate was prepared by centrifugation of anticoagulated whole blood at 150 g for 20 min. After incubation of 0.45 ml of platelet rich plasma with different kininogen forms as indicated in the figure legends, and addition of 5 μl of […] at a final concentration of 5 μM, platelet aggregation was induced. Aggregation was quantitated by following the change in light transmission in a standardized aggregometer.
FIG. 5 Adenosin-diphosphate (5 μM)-induced aggregation of platelet-rich plasma was performed in the absence (−) or presence of GST-domain 5 (D5), or the peptides HK483 and HK486 (each 1000 nM). Platelet aggregation is presented as % of control.

[1] = target: T1, binding of PAI-1 to vitronectin in PAI-1-depleted extracellular matrix of endothelial cells (Homo sapiens, UniProt P04004); test: Binding of PAI-1 to endothelial cell matrix; details: 2 μg/ml PAI-1; competitors each 500 nM; 10 μM ZnCl2 (FIG. 1)
T1 construct: The extracellular matrix of human umbilical vein endothelial cells was prepared according to standard procedures; endogenous in cells; host or cells: extracellular matrix of human umbilical vein endothelial cells, glycine-treated
T1 sequence (P04004 20-478): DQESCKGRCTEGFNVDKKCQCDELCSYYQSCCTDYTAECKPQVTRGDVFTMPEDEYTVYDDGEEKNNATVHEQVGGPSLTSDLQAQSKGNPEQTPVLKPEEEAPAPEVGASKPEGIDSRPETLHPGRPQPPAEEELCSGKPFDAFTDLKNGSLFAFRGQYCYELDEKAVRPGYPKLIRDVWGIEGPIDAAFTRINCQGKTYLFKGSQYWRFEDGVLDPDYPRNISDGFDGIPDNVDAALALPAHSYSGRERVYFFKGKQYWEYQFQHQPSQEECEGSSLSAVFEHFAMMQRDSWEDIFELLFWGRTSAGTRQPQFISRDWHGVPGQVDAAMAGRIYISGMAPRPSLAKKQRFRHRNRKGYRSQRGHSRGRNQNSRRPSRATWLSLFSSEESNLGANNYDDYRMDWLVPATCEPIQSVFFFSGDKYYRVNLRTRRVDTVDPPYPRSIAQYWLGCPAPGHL
Description: The extracellular matrix of human umbilical vein endothelial cells was prepared according to standard procedures. PAI-1-depleted extracellular matrix was obtained by subsequent incubation with glycine (0.1 M, pH 2.3) for 2 h at 25° C. Wells were washed and blocked with phosphate buffered saline containing 3% (wt/vol) bovine serum albumin before proceeding with binding assays. Binding of PAI-1 (2 μg/ml) to the extracellular matrix was performed in a final volume of 50 μl Tris-buffered saline containing 0.1% Tween-20, 0.3% (wt/vol) bovine serum albumin for 2 h at 22° C. in the absence or presence of […] and different kininogen forms. Following the incubation period and a washing step, bound PAI-1 was quantitated by anti-human PAI-1 monoclonal antibody 12A4, followed by addition of 1:1000 diluted peroxidase-conjugated goat anti-mouse immunoglobulins. The conversion of the substrate 2,2,-azino-di(3-ethyl) benz-thiazoline sulphate was monitored at 405 nm in a Thermomax microtiter plate reader. […]
FIG. 1 The binding of 2 μg/ml PAI-1 to PAI-1-depleted (2 h glycine preincubation) extracellular matrix of cultured endothelial cells was tested in the absence (−)or presence of HK, HKa, GST-domain 5 (D5), the peptides HK483 and HK486 (each 500 nM) in a buffer containing 10 μM ZnCl2. Specific binding of PAI-1 is presented as absorbance at 405 nm.

[2] = target: T2, platelet αIIbβ3-integrin with vitronectin (Homo sapiens, UniProt P04004); test: Binding of vitronectin to αIIbβ3-integrin; details: vitronectin 2 μg/ml, immobilized αIIbβ3-integrin 5 μg/ml, 10 μM ZnCl2 (FIG. 3)
T2 sequence (P04004 20-478): T1 sequence (P04004 20-478)
Description: Microtiter plates were coated with 5 μg/ml αIIbβ3-integrin in Tris-buffered saline, pH 7.4, containing 1 mM CaCl2, 1 mM MgCl2 overnight at 4° C. and then blocked with 3% (w/v) bovine serum albumin. Binding of multimeric vitronectin (2 μg/ml) was performed in a final volume of 50 μl Tris-buffered saline containing 0.1% Tween-20, 0.3% (w/v) bovine serum albumin, 1 mM CaCl2 and 1 mM MgCl2 for 2 h at 22° C. in the absence or presence of 10 μM ZnCl2 and different kininogen forms. After the incubation period, monoclonal anti-vitronectin antibody VN7 at a concentration of 125 ng/ml was added, followed by addition of 1:1000 diluted peroxidase-conjugated goat anti-mouse immunoglobulins, respectively. Binding was quantitated as described above.
FIG. 3 The binding of vitronectin (2 μg/ml) to immobilized αIIbβ3-integrin (5 μg/ml) in the absence or presence of increasing concentrations of PAI-1 (filled squares), HKa (filled circles) or GST-domain 5 (open circles) in a buffer containing 10 μM ZnCl2 was carried out. Specific binding is presented as absorbance at 405 nm.

platelets = test: Platelet adhesion onto vitronectin-coated plates; type: cell-based; details: competitors each 250 nM (FIG. 4)
Description: Multiwell plates were coated with 5 μg/ml multimeric vitronectin (dissolved in bicarbonate buffer, pH 9.6) and blocked with 3% (wt/vol) bovine serum albumin for 16 h at 4° C. Platelets stained with calcein acetoxymethyl ester (calcein-AM, 2.5 μM) (15 min at 37° C. in the dark) at a density of 5×10^6 cells suspended in 50 μl HEPES-Tyrode buffer containing 4 mM MgCl2 were added together with the respective competitors and incubated for 30 min at 37° C. After three washes with phosphate buffered saline, bound platelets were lysed with 100 μl of lysis buffer (150 mM NaCl, 10 mM Tris-CH1, pH 7.5, 5 mM EDTA, 1% (wt/vol) NP-40, 1 mM phenyl-methylsulfonyl fluoride, 20 μg/ml soybean trypsin inhibitor) and quantified in a fluorescent plate reader (excitation filter 492 nm, emission filter 535 nm).
FIG. 4. The adhesion of platelets to vitronectin in the absence (−) or presence of HK, HKa, GST-domain 5(D5), or the peptides HK483 and HK486 (each 250 nM) was carried out. Cell adhesion is presented as % of control.

His-483-Gly-497 (HGHGKHKNKGKKNGK; UniProt P01042 501-515, looked up, fragment) [HK483, peptide derived from the carboxy-terminus of the domain 5 of HK]
urokinase-mediated clot lysis, which is inhibited in the presence of PAI-1 (PAI-1): enhance
aggregation of platelet-rich plasma (platelet-rich plasma): inhibit
binding of PAI-1 to vitronectin in PAI-1-depleted (glycine-treated) extracellular matrix of endothelial cells [1]: inhibited
interaction of platelet αIIbβ3-integrin with vitronectin [2]: block
αIIbβ3-integrin-mediated platelet adhesion to vitronectin (platelets): block
